According to ChEMBL document CHEMBL4765237, “Structural optimization and structure-activity relationship studies of N-phenyl-7,8-dihydro-6H-pyrimido[5,4-b][1,4]oxazin-4-amine derivatives as a new class of inhibitors of RET and its drug resistance mutants” (Eur J Med Chem, 2018):
Activity calls are given as the source filed them. No cut-off for these calls is given here.

What was measured:
[1] = molecular target: High affinity nerve growth factor receptor (Homo sapiens, UniProt P04629)
[2] = molecular target: Vascular endothelial growth factor receptor 2 (Homo sapiens, UniProt P35968); assay: Inhibition of human KDR (790 to end residues) using myelin basic protein as substrate after 40 mins by [gamma-33ATP] radiometric assay
Mus musculus = species on record: Mus musculus; settings: NOD-SCID, dose 30.0 mg/kg, time 18.0 day
HepG2 = assay: Growth inhibition of human HepG2 cells incubated for 3 days by MTT assay; format: functional; settings: HepG2, 72 h, time 3 day
[3] = Growth inhibition of human TT cells incubated for 10 days by MTT assay; format: functional; settings: 240 h, time 10 day
[4] = Growth inhibition of human H4 cells incubated for 3 days by MTT assay; format: functional; settings: H4, 72 h, time 3 day
[5] = Growth inhibition of […] BaF3 cells harboring BCR abl mutant incubated for 3 days by MTT assay; format: functional; settings: BaF3, 72 h; time 3 day
CDK4/Cyclin D3 = CDK4/Cyclin D3 (Homo sapiens, UniProt P11802); assay: Inhibition of recombinant full length human CDK4/CyclinD3 using Rb fragment as substrate incubated for 40 mins in presence of [gamma-33ATP] by scintillation counting based radiometry assay; format: protein-complex assay
[6] = molecular target: Serine/threonine-protein kinase TAO2 (Homo sapiens, UniProt Q9UL54); assay: Inhibition of recombinant human TAO2 (1 to 320 residues) using myelin basic protein as substrate incubated for 40 mins in presence of [gamma33P]ATP by scintillation counting based radiometry assay
[7] = Growth inhibition of […] NIH3T3 cells harboring RET C634Y mutant incubated for 3 days by MTT assay; format: functional; settings: NIH3T3, 72 h; time 3 day
DU-145 = assay: Growth inhibition of human DU-145 cells incubated for 3 days by MTT assay; format: functional; settings: DU-145, 72 h, time 3 day
[8] = molecular target: Tyrosine-protein kinase Mer (Homo sapiens, UniProt Q12866); assay: Inhibition of recombinant human MER (557 to 882 residues) using KKLNRTLSFAEPG as substrate incubated for 40 mins in presence of [gamma-33ATP by scintillation counting based radiometry assay
[9] = molecular target: TRAF2 and NCK-interacting protein kinase (Homo sapiens, UniProt Q9UKE5); assay: Inhibition of human TNIK (1 to 367 residues) using RLGRDKYKTLRQIRQ as substrate incubated for 40 mins in presence of [gamma33P]ATP by scintillation counting based radiometry assay
CDK9/cyclin T1 = CDK9/cyclin T1 (Homo sapiens, UniProt P50750); assay: Inhibition of recombinant full length human CDK9/cyclinT1 using KTFCGTPEYLAPE as substrate incubated for 40 mins in presence of [gamma-33ATP] by scintillation counting based radiometry assay; format: protein-complex assay
[10] = molecular target: Macrophage-stimulating protein receptor (Homo sapiens, UniProt Q04912); assay: Inhibition of recombinant human Ron (983 to end residues) using GGMEDIYFEFMGGKKK as substrate incubated for 40 mins in presence of [gamma33P]ATP by scintillation counting based radiometry assay
[11] = molecular target: Tyrosine-protein kinase receptor UFO (Homo sapiens, UniProt P30530); assay: Inhibition of recombinant human Axl (473 to end residues) using KKSRGDYMTMQIG as substrate incubated for 40 mins in presence of [gamma-33ATP] by scintillation counting based radiometry assay
[12] = molecular target: Macrophage colony-stimulating factor 1 receptor (Homo sapiens, UniProt P07333)
Ephrin type-B receptor 1 = Ephrin type-B receptor 1 (Homo sapiens, UniProt P54762); assay: Inhibition of recombinant human EphB1 (564 to end residues) using KVEKIGEGTYGVVYK as substrate incubated for 40 mins in presence of [gamma-33ATP] by scintillation counting based radiometry assay
Ephrin type-A receptor 7 = Ephrin type-A receptor 7 (Homo sapiens, UniProt Q15375); assay: Inhibition of recombinant human EphA7 (613 to 909 residues) using KTFCGTPEYLAPEVRREPRILSEEEQEMFRDFDYIADWC as substrate incubated for 40 mins in presence of [gamma-33ATP] by scintillation counting based radiometry assay
L02 = assay: Growth inhibition of human L02 cells incubated for 3 days by MTT assay; format: functional; settings: L02, 72 h, time 3 day
[13] = molecular target: Mitogen-activated protein kinase kinase kinase 20 (Homo sapiens, UniProt Q9NYL2); assay: Inhibition of recombinant full-length human ZAK using MBP as substrate incubated for 40 mins in presence of [gamma33P]ATP by scintillation counting based radiometry assay
BaF3 = assay: Growth inhibition of mouse BaF3 cells over expressing wild type RET incubated for 3 days by MTT assay; format: functional; settings: BaF3, 72 h, time 3 day
[14] = Growth inhibition of mouse L929 cells incubated for 3 days by MTT assay; format: cell-based; settings: time 3 day
[15] = molecular target: Serine/threonine-protein kinase B-raf (Homo sapiens, UniProt P15056); assay: Inhibition of recombinant full length human B-Raf (416 to end residues) using myelin basic protein substrate incubated for 40 mins in presence of [gamma-33ATP] by scintillation counting based radiometry assay
[16] = molecular target: Mitogen-activated protein kinase 13 (Homo sapiens, UniProt O15264); assay: Inhibition of recombinant human full length SAPK4 using myelin basic protein as substrate incubated for 40 mins in presence of [gamma33P]ATP by scintillation counting based radiometry assay
[17] = molecular target: Proto-oncogene tyrosine-protein kinase receptor Ret (Homo sapiens, UniProt P07949)
[18] = AUC (0 to t) in Sprague-Dawley rat at 10 mg/kg, po measured upto 24 hrs by LC-MS/MS analysis; format: ADME, organism-based; set-up: route oral, dose 10 mg/kg, time <=24; settings: in vivo
[19] = molecular target: Mast/stem cell growth factor receptor Kit (Homo sapiens, UniProt P10721); assay: Inhibition of recombinant human C-Kit using poly(Glu, Tyr) 4:1 as substrate incubated for 40 mins in presence of [gamma-33ATP] by scintillation counting based radiometry assay
[20] = molecular target: Receptor-type tyrosine-protein kinase FLT3 (Homo sapiens, UniProt P36888); assay: Inhibition of recombinant human FLT3 (564 to end residues) using EAIYAAPFAKKK as substrate incubated for 40 mins in presence of [gamma-33ATP] by scintillation counting based radiometry assay
[21] = molecular target: BDNF/NT-3 growth factors receptor (Homo sapiens, UniProt Q16620); assay: Inhibition of recombinant human TRKB (455 to end residues) using poly(Glu, Tyr) 4:1 as substrate incubated for 40 mins in presence of [gamma33P]ATP by scintillation counting based radiometry assay
[22] = molecular target: Mitogen-activated protein kinase 12 (Homo sapiens, UniProt P53778); assay: Inhibition of recombinant human full length SAPK3 using myelin basic protein as substrate incubated for 40 mins in presence of [gamma33P]ATP by scintillation counting based radiometry assay
[23] = molecular target: Mitogen-activated protein kinase kinase kinase 7 (Homo sapiens, UniProt O43318); assay: Inhibition of recombinant human TAK1 (1 to 303 residues) using casein as substrate incubated for 40 mins in presence of [gamma33P]ATP by scintillation counting based radiometry assay

BDNF/NT-3 growth factors receptor, sequence (Q16620 whole entry): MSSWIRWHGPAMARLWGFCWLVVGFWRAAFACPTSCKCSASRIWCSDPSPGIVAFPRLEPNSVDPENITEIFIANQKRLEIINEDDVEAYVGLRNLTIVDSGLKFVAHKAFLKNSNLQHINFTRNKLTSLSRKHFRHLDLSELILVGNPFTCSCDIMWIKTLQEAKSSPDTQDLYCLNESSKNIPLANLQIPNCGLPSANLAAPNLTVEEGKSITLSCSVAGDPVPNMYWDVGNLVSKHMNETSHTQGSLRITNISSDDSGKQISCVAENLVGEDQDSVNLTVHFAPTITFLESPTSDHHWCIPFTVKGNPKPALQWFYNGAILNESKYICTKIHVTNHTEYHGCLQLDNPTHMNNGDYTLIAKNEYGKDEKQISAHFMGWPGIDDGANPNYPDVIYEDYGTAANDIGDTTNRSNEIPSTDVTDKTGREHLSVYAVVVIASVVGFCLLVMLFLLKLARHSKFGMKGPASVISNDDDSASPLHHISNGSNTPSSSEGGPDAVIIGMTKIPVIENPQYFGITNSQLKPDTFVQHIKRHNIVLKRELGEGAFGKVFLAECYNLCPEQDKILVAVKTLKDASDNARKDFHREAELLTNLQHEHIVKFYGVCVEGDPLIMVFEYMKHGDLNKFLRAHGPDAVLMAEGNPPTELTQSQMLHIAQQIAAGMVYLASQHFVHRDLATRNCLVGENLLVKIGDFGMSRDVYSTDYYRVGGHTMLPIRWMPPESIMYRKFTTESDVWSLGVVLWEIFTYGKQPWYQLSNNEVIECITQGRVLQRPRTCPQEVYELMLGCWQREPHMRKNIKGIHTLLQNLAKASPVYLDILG
Mitogen-activated protein kinase 13, sequence (O15264 whole entry): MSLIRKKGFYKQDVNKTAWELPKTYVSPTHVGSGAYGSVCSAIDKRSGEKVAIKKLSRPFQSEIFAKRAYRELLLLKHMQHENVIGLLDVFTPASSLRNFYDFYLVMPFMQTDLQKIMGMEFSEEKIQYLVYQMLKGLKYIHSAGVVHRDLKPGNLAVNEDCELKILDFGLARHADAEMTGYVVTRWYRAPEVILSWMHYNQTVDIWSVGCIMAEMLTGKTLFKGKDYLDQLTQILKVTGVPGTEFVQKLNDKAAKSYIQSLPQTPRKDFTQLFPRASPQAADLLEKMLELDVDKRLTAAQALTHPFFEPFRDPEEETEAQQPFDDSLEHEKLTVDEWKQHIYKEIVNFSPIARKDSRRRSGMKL
Mast/stem cell growth factor receptor Kit, sequence (P10721 whole entry): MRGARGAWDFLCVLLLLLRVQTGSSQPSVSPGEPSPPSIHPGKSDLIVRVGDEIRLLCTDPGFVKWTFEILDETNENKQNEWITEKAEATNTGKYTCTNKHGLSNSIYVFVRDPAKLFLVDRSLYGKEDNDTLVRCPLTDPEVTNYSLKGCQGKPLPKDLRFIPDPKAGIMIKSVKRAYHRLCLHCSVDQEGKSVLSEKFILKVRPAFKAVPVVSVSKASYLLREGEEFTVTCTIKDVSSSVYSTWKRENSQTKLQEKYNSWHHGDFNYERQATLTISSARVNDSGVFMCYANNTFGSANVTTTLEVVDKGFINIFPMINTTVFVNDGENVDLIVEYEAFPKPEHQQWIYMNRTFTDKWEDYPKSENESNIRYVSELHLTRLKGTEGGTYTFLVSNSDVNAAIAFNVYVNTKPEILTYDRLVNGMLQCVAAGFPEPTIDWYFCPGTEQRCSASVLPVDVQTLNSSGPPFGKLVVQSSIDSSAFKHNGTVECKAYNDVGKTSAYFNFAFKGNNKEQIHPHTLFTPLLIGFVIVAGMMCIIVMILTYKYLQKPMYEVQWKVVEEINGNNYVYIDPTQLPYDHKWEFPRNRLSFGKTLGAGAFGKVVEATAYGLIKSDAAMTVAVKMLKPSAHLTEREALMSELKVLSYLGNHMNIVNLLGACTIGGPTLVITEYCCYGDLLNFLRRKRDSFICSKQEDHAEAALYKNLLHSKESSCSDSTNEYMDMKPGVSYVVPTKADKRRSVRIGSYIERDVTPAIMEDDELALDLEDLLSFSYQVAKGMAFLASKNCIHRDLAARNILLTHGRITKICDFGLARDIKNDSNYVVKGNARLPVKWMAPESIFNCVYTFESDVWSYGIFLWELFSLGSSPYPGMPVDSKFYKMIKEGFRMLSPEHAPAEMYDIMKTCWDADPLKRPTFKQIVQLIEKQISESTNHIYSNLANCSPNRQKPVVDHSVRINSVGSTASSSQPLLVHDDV
High affinity nerve growth factor receptor, sequence (P04629 whole entry): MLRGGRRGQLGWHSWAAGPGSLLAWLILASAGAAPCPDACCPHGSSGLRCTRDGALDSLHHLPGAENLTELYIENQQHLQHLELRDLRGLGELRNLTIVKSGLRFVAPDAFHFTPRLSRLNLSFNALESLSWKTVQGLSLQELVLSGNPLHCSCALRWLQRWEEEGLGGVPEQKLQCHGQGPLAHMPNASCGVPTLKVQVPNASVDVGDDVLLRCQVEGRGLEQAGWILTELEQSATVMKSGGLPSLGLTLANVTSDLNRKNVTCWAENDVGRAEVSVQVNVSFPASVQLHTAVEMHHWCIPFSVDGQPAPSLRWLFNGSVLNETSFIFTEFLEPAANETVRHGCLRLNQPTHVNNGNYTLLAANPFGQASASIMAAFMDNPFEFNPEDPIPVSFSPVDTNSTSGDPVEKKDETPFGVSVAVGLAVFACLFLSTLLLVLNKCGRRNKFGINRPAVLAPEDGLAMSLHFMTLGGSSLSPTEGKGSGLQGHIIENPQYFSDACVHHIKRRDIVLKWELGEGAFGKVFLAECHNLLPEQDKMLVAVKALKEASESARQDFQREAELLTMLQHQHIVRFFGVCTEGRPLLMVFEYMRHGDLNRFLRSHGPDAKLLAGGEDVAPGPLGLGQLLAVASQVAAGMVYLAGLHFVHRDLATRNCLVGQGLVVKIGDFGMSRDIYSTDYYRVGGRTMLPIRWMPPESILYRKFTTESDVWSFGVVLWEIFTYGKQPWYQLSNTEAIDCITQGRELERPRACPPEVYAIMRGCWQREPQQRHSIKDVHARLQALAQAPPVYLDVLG
CDK9/cyclin T1, sequence (O60563 whole entry): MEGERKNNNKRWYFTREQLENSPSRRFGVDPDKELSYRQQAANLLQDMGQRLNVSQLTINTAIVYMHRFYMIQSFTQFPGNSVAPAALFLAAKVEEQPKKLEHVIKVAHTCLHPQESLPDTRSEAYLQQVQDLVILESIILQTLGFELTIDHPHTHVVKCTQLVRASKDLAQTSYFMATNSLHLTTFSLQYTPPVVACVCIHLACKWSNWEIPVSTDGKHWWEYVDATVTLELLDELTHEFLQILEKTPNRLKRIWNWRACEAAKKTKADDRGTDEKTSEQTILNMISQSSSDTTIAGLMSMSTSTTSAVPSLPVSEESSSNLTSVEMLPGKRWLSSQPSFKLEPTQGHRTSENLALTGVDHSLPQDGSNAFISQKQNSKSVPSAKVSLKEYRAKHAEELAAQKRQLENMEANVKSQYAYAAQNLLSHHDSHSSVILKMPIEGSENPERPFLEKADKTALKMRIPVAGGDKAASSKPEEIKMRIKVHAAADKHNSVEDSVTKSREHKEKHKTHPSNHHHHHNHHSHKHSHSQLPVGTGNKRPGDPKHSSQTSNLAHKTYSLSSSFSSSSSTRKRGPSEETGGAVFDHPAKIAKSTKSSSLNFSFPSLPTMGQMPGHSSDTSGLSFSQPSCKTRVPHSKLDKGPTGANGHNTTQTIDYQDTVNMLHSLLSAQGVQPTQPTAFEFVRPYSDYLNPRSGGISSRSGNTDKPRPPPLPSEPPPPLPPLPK
CDK9/cyclin T1, sequence (P50750 whole entry): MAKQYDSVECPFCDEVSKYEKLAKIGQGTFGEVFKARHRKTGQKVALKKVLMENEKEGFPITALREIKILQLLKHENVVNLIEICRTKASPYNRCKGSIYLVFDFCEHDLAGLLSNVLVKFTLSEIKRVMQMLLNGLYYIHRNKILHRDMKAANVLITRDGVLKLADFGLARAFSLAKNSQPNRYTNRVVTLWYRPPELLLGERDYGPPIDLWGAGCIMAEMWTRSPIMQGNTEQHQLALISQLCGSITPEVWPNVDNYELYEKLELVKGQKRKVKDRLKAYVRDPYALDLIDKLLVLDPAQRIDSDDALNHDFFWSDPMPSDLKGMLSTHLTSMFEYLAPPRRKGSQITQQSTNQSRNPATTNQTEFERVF
Tyrosine-protein kinase receptor UFO, sequence (P30530 whole entry): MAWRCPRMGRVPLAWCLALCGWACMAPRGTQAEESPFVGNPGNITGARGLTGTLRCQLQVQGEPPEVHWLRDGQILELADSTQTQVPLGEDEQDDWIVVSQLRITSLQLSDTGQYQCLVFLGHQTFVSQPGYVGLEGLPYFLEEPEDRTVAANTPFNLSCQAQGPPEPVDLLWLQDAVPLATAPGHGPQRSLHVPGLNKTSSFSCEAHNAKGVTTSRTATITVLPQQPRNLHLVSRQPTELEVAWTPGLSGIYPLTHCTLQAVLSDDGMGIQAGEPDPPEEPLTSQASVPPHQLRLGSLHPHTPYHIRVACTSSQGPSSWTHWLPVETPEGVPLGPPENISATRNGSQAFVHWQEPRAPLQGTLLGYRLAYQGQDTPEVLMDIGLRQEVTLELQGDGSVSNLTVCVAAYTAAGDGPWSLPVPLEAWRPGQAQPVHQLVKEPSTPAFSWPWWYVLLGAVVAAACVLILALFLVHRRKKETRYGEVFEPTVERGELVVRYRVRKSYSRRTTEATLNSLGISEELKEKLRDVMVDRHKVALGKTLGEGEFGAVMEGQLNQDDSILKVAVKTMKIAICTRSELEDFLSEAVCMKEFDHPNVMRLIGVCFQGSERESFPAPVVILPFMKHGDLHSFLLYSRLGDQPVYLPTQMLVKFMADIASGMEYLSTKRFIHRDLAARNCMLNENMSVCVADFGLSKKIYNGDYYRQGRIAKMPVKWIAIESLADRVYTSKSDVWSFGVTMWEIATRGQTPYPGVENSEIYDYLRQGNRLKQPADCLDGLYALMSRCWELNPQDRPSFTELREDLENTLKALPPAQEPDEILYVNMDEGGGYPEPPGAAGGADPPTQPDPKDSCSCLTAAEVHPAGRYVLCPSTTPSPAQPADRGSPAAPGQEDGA

CC(C)(C)c1cc(NC(=O)Nc2ccc(Nc3ncnc4c3OCCCN4)cc2)no1
IC50 [1]: 71 nM | IC50 [2]: 892 nM | inhibition (Mus musculus): Active | GI50 (HepG2): > 10000 nM | GI50 [3]: 65 nM | GI50 [4]: > 10000 nM | GI50 [5]: > 10000 nM | IC50 (CDK4/Cyclin D3): 1110 nM | IC50 [6]: 903 nM | GI50 [7]: 80 nM | GI50 (DU-145): > 10000 nM | IC50 [8]: 1490 nM | IC50 [9]: 221 nM | IC50 (CDK9/cyclin T1): 833 nM | IC50 [10]: 1260 nM | IC50 [11]: 708 nM | IC50 [12]: 9 nM | IC50 (Ephrin type-B receptor 1): 388 nM | IC50 (Ephrin type-A receptor 7): 199 nM | GI50 (L02): > 10000 nM | IC50 [13]: 19 nM | GI50 (BaF3): 100 nM | GI50 at 72 h [14]: > 10000 nM | IC50 [15]: 957 nM | IC50 [16]: 214 nM | IC50 [17]: 10 nM | AUC(0-t) at 24 h [18]: 441 µg·h/mL | IC50 [19]: 218 nM | IC50 [20]: 13 nM | IC50 [21]: 68 nM | IC50 [22]: 199 nM | IC50 [23]: 484 nM
